Data taken from patent US20080045796A1, “HISTOFLUORESCENT STAIN COMPOSITION FOR ENDOSCOPY” (PENTAX CORPORATION, priority 2006, published 2008).

Legend:
[1] = Measurement of absorption spectrum and fluorescence excitation spectrum; type: physicochemical
Experimental: Measurement of an absorption spectrum and a fluorescence excitation spectrum of Fast Green FCF was performed. The Fast Green FCF (Wako Pure Chemical Industries, Ltd.) was adjusted to 1.0 mg/ml, and the light absorbance was continuously measured at a wavelength of from 200 to 750 nm using a spectrophotometer (manufactured by Shimadzu Corp., BioSpec-1600) to determine the wavelength at which the absorbance reached the maximum. The maximum absorption wavelength of 628 nm thus obtained was irradiated as an excitation wavelength, and the wavelength of the scattered light detected in the perpendicular direction to the light axis of the excitation light was measured using a fluorescence spectrophotometer (manufactured by Shimadzu Corp., RF-1500), thus to obtain a maximum excitation wavelength of 628 nm and a maximum fluorescence wavelength of 652 nm.

mouse large intestine = test: Confocal microscope observation of extracted large intestine piece stained with the stain (stain specificity)
Experimental: In order to find the stain specificity of the stain, Fast Green FCF (Wako Pure Chemical Industries, Ltd.) was diluted to a 2.0 mg/mL preparation using a 0.1 M sodium phosphate buffer solution (pH 7), and observation was performed using a confocal microscope (Leica Microsystems Corp., TCS-SP2).
For the sample, a mouse was subjected to laparotomy to extract the large intestine, which was then cut into a piece of 1 cm at every edge and stained with the stain.
The diameter of the confocal pinhole was 1.00 airy, and an oil immersion lens of 63 magnifications was used.
Staining was performed by immersion in the same manner as in Example 2, excitation was induced at a wavelength of 488 nm, and the fluorescent images were observed.
The conditions for the confocal microscope were the same, except for the wavelength of the irradiated laser.

[2] = system: large intestine of a mouse; test: Stainability: stain solution injected into large intestine, confocal cross-section of the lumen; details: 1.0 mg/mL, pH 6, 100 μL injected; images at every 5.0 μm from the luminal surface
Experimental: Fast Green FCF was prepared to 1.0 mg/mL using a 0.1 M sodium phosphate buffer solution (pH 6), and 100 μL of the stain solution was injected into the large intestine of a mouse (ddY, 11 weeks old, male). To stain the large intestine evenly while preventing outflow of the stain, the mouse was subjected to laparotomy, and the stain was injected while clipping the upward colon side and the downward colon side of the extracted large intestine with hemostatic clips.
The imaging conditions were such that the diameter of the confocal pinhole was 1.00 airy, and a lens of 20 magnifications was used.

[3] = system: large intestine extracted from a mouse; test: Stainability and tissue penetrability, fluorescence observation of frozen sections; details: 6 μm frozen sections, stained as in Example 3
Description: The stainability and tissue penetrability of Fast Green FCF (Fast Green GCF, Wako Pure Chemical Industries, Ltd.) were checked by observation of a tissue specimen.
A tissue specimen of the large intestine extracted from a mouse, which had been stained in the same manner as in Example 3, was embedded in an OCT Compound (Sakura Finetek Corp., Tissue-Tek O.C.T. compound), and was frozen by rapidly cooling with dry ice. The frozen section was sliced into 6 μm to prepare frozen sections, and fluorescence observation was performed. The fluorescence observation was performed using a confocal microscope (Leica Microsystems Corp., TCP-SP2) (imaging conditions: using a lens of 40 magnifications, pinhole diameter 171.3 μm).
A tissue section which was similarly embedded in the OCT compound was HE-stained, and the observation result is shown in FIG. 9 as a Comparative Example.

Duodenum = test: Tail vein administration, stainability for different regions: duodenum; type: in vivo, mouse
Experimental: (§1) An evaluation of the tissue stain composition of the present invention was performed for the stainability for different regions. Duodenum, large intestine and liver were extracted and observed.
(§2) Fast Green FCF was prepared to 10 mg/mL using physiological saline at pH 6.0. 100 μL of the prepared Fast Green FCF was administered to a mouse (ddY, 11 weeks old, male) through the tail vein, and the mouse was subjected to laparotomy after 5 minutes. The penetrability was observed by naked eyes, and the stainability and fluorescence were observed using a confocal microscope (Leica Microsystems Corp., TCP-SP2).
The conditions for the confocal microscopic observation were such that the diameter of the confocal pinhole was 1.00 airy, and an oil immersion lens of 63 magnifications was used.

large intestine = test: Tail vein administration, stainability for different regions: large intestine; type: in vivo, mouse; details: 10 mg/mL, 100 μL tail vein, laparotomy after 5 minutes
Experimental: as §1, §2
(§3) The conditions for the confocal microscopic observation were such that the diameter of the confocal pinhole was 1.00 airy, and a cross-sectional image of an area about 10 μm deep from the luminal surface, which image was taken using an oil immersion lens of 63 magnifications, is presented in FIG. 11.

liver = test: Tail vein administration, stainability for different regions: liver; type: in vivo, mouse
Experimental: as §1, §2
as §3, with “Furthermore, the surrounding septum was more strongly stained. The” for “The”, “area” for “area about”, “12.” for “11.”

[4] = system: tumor tissue developed in the upper part of the ovary of a rat; test: Extracted tumor tissue immersed in stain, confocal microscope observation (single and double staining)
Experimental: Fast Green FCF was prepared to 1.0 mg/mL using a 0.1 M sodium phosphate buffer solution (pH 7).
The tumor tissue of the rat was extracted and immersed in the prepared stain for 5 minutes to stain the tissue. The remaining unpenetrated portion of the Fast Green was washed off with a 0.1 M sodium phosphate buffer solution (pH 6), and observation was made using a confocal microscope.
The observation conditions were such that the pinhole diameter was 1.00 airy, and an oil immersion lens of 63 magnifications was used.
To verify the stainability at a tumor part, Monascus Yellow was used together with Fast Green FCF to perform double staining. The Monascus Yellow was prepared to 1.0 mg/mL using a 0.1 M sodium phosphate buffer solution (pH 6).

[5] = 10 mg/mL, 100 μL tail vein, laparotomy after 5 minutes

CCN(Cc1cccc(S(=O)(=O)[O-])c1)c1ccc(C(=C2C=CC(=[N+](CC)Cc3cccc(S(=O)(=O)[O-])c3)C=C2)c2ccc(O)cc2S(=O)(=O)[O-])cc1.[Na+].[Na+] [Fast Green FCF]
can be excited at, for example [1]: 628 nm
fluorescence detected at [1]: 652 nm
maximum absorption wavelength ([1]; 1.0 mg/ml, spectrophotometer 200 to 750 nm): 628 nm
maximum excitation wavelength ([1]; fluorescence spectrophotometer): 628 nm
maximum fluorescence wavelength ([1]; fluorescence spectrophotometer): 652 nm
fluorescent contrast in confocal image (mouse large intestine; 2.0 mg/mL, pH 7, He-Ne laser 633 nm, fluorescence 650 to 750 nm): provided fluorescent contrast to the images of the intercellular space of the mucosal epithelium of the large intestine
chromophilic regions, Fast Green FCF versus Fluorescite (mouse large intestine; Fluorescite excited at 488 nm, single and double-stained images): the stain and Fluorescite had different chromophilic regions
fluorescent contrast in confocal cross-sectional images [2]: provides good fluorescent contrast for the lamina propria mucosae
fluorescent contrast in frozen section, compared with HE staining [3]: provided good fluorescent contrast for the lamina propria mucosae
staining site under confocal microscope (Duodenum; [5]): Strong staining was achieved not in the cytoplasm but in the cellular membrane or intercellular space
staining visible by naked eyes (Duodenum; [5]): stained in deep-green color to an extent of being clearly visible by naked eyes
fluorescent contrast under a confocal microscope (Duodenum; epithelial cells): provides clear fluorescent contrast for the shape of the epithelial cells
contrast under a white light source (Duodenum; small intestinal villi): conferred contrast such that observation of the small intestinal villi under a white light source became feasible
color change visible by naked eyes (large intestine): did not show color changes that were clear enough to be visible by naked eyes
penetration of the dye (large intestine): the dye penetrated sufficiently to the extent that imaging by a confocal imaging system was possible
staining site under confocal microscope (large intestine): The intercellular space near the luminal surface, and the lamina propria mucosae were well stained
staining site under confocal microscope (liver; [5]): not only the intercellular space and cellular membrane as observed in the duodenum or large intestine but also the lobular parts were stained
fluorescent contrast under confocal microscope (liver; connective tissue in the liver): provided good contrast for the Glisson's capsule
fluorescent contrast in confocal images ([4]; 1.0 mg/mL, pH 7, immersed 5 minutes): provided good fluorescent contrast for the connective tissue fibers in the tumor tissue
staining site in double staining ([4]; Monascus Yellow 1.0 mg/mL pH 6 together with Fast Green FCF): slightly stained the cells but more strongly stained the fibrous part
